The values below come from patent US20240252546A1, “NEURITE OUTGROWTH PROMOTION KIT AND USE THEREFOR” (KEIO UNIVERSITY, priority 2021, published 2024).

Assay [1] concerns nerve cells induced from neurospheres derived from 201B7 cells. The experiment in a line: Effect of addition of SB203580 on neurite outgrowth (Experimental Example 7). The format is cell-based, human. The conditions noted are these: differentiated 14 days. The procedure:
(§1) Neurospheres derived from 201B7 cells, which are cells of a human iPS cell line, were prepared in the same manner as in Experimental Example 1. Subsequently, each neurosphere was cultured for 24 hours in the presence of each of DAPT and Compound 34. DAPT and Compound 34 were used at the same concentrations as in Experimental Example 1. In addition, in this case, SB203580 (CAS number: 152121-47-6), which is a p38 inhibitor, was added to the culture medium at a final concentration of 20 μM. In addition, a group to which SB203580 had not been added was also prepared as a control.
(§2) Subsequently, each neurosphere was seeded on a 48-well chamber slide (IWAKI & CO., LTD.) coated with poly-L-ornithine/fibronectin, cultured for 14 days in a culture medium containing no growth factor at 37° C. in an environment of 95% air and 5% CO2, and differentiated into nerve cells.
Subsequently, each of the obtained nerve cells was fixed with 4% paraformaldehyde in 0.1 M PBS, and each of βIII-tubulin which is a nerve cell marker, and the Tau protein which is frequently distributed in axons, was immunostained, and the length of the neurite was measured. […]

Assay [2] deals with phosphorylated CDC25B. Put plainly: Effect of addition of SB203580 on phosphorylation of CDC25B (Experimental Example 6). The class given is cell-based, human. The procedure:
as §1
Subsequently, each neurosphere was fixed with paraformaldehyde and subjected to immunostaining of phosphorylated CDC25B.
In FIG. 12(c), “DAPT” indicates it is the result obtained from the control into which the DAPT treatment has been carried out in the absence of SB203580, and “DAPT+SB203580” indicates it is the result obtained by carrying out the DAPT treatment in the presence of SB203580.

In a further assay the target is T1, CDC25B (Homo sapiens, UniProt P30305).
T1 sequence (P30305 1-580): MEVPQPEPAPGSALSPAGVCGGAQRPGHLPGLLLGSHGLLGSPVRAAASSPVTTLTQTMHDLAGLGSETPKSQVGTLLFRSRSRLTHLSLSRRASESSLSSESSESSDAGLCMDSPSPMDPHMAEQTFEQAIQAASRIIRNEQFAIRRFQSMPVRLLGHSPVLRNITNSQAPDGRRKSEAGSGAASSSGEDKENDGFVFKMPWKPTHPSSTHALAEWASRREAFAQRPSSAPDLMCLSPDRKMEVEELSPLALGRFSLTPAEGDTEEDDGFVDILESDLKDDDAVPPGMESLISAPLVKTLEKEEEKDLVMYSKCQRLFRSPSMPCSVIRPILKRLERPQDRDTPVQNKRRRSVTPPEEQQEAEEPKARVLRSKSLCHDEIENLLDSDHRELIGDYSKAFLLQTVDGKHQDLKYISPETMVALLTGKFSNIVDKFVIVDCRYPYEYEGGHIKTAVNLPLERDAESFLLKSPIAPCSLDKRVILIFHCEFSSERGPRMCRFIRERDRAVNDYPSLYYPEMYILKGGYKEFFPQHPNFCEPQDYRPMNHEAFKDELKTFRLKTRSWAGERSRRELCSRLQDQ
The following applies: "it is said"; cited from earlier work.

The test system of assay [3] is phosphorylated CDC25B. Put plainly: Effect of RK-682 on phosphorylation of CDC25B (Experimental Example 9). The class given is cell-based, human. The conditions noted are these: 201B7 neurospheres; 20 μM RK-682, 24 hours; vs control. The procedure:
(§3) Neurospheres derived from 201B7 cells, which are cells of a human iPS cell line, were prepared in the same manner as in Experimental Example 1. Subsequently, the neurospheres were cultured for 24 hours in the presence of RK-682 at a final concentration of 20 μM. In addition, as a control, a group to which RK-682 was not added was also prepared. Subsequently, each neurosphere was fixed with paraformaldehyde and subjected to immunostaining of each of the phosphorylated p38 and the phosphorylated CDC25B.

For another assay, the system named is phosphorylated p38. Put plainly: Effect of RK-682 on phosphorylation of p38 (Experimental Example 9). The format is cell-based, human. The following applies: 201B7 neurospheres; 20 μM RK-682, 24 hours; vs control. The method, then:
as §3

The subject of assay [4] is nerve cells induced from neurospheres derived from 201B7 cells. The experiment in a line: Effect of RK-682 on neurite outgrowth (Experimental Example 10). The class given is cell-based, human. The conditions noted are these: 201B7 neurospheres; 20 μM RK-682, 24 hours, differentiated 14 days; vs control. The method, then:
Neurospheres derived from 201B7 cells, which are cells of a human iPS cell line, were prepared in the same manner as in Experimental Example 1. Subsequently, the neurospheres were cultured for 24 hours in the presence of RK-682 at a final concentration of 20 μM. In addition, as a control, a group to which RK-682 was not added was also prepared.
as §2
Subsequently, each of the obtained nerve cells was fixed with 4% paraformaldehyde in 0.1 M PBS, and each of βIII-tubulin which is a nerve cell marker, and the Tau protein which is frequently distributed in axons, was immunostained, and the length of the neurite was measured.

Setting [5] is: 20 μM SB203580 during Compound 34 treatment (1 μM, 24 hours), vs without SB203580.
Where [6] appears, read: 20 μM SB203580 during DAPT treatment (10 μM, 24 hours), vs DAPT without SB203580.

Consider `C[S+]([O-])c1ccc(-c2nc(-c3ccncc3)c(-c3ccc(F)cc3)[nH]2)cc1` (stereo not drawn) [SB203580], for which the “neurite outgrowth (neurite length)” value in assay [1] (setting [5]) and in assay [1] (setting [6]) was “significantly suppressed” throughout. The “increase in the amount of phosphorylated CDC25B in the neurosphere” value in the assay on phosphorylated CDC25B [2] (setting [5]) and in the assay on phosphorylated CDC25B [2] (setting [6]) was “significantly suppressed” in each case.
`CCCCCCCCCCCCCCCC(=O)C1=C(O)[C@@H](CO)OC1=O` [RK-682]: the “dephosphorylation inhibitory effect on CDC25B” value at CDC25B is “does not have a dephosphorylation inhibitory effect”. Further, the “amount of phosphorylated CDC25B in the neurosphere” value in the assay with phosphorylated CDC25B [3] is “significantly increased”. In the assay with phosphorylated p38, the “amount of phosphorylated p38 in the neurosphere” value was “significantly increased”. Besides, in assay [4], the “neurite outgrowth (neurite length), βIII-tubulin immunostaining” value is listed as “significantly promoted” and the “neurite outgrowth, Tau protein immunostaining” value is “significantly promoted”.
